Assay results as given in patent US20140357713A1, “ANTIMICROBIAL COMPOUNDS AND METHODS OF USE” (NexMed Holdings, Inc., priority 2012, published 2014).
Like-named read-outs stand apart in the source and are kept apart here.

Legend:
[1] = tested on: Staphulococcus aureus (ATCC 29213); assay: Minimum inhibitory concentration (MIC) assay, Example 33; assay type: cell-based, Staphylococcus aureus; conditions: Staphylococcus aureus
How it was run: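 In CAMHB, 2-fold compound series meet bacteria from fresh isolated colonies, turbidity-adjusted to OD600 0.08-0.13 and diluted 1:100 (2× inoculum). Incubation: 35° C. Endpoint: MIC per CLSI.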

Candida albicans = assay: Extended time kill study, Example 34 (0 to 24 h); assay type: cell-based
How it was run: (§1)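 Strain suspensions prepared as for MIC testing were mixed 1:1 with compound solution at higher multiples of MIC. Samples taken over 0 to 24 h were diluted in test medium and plated on agar, and colonies were counted after 24–48 h incubation.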

Pseudomonas aeruginosa = assay: Extended time kill study, Example 34 (0 to 24 h); assay type: cell-based
How it was run: as §1

Aspergillus niger = assay: Extended time kill study, Example 34 (0 to 24 h); assay type: cell-based
How it was run: as §1

Staphylococcus aureus = assay: Extended time kill study, Example 34 (0 to 24 h); assay type: cell-based
How it was run: as §1

CCCCCCCCCCCCOC(=O)C(C)NC(C)C.Cl (stereo not drawn) [Nex-60, Dodecyl 2-(isopropylamino)propanoate hydrochloride]
MIC ([1]; ATCC29213, Table 19 summary, read-out: MIC): 1560 µg/mL | MIC ([1]; ATCC29213, n = 1, read-out: MIC S. aureus): 1560 µg/mL | MIC ([1]; ATCC29213, n = 2, read-out: MIC S. aureus): 1560 µg/mL | Viable counts in Log10 CFU/mL (Candida albicans; 1 × MIC, 1 h): 5.51 Log10 CFU/mL | Viable counts in Log10 CFU/mL (Candida albicans; 1 × MIC, 2 h): 5.50 Log10 CFU/mL | Viable counts in Log10 CFU/mL (Candida albicans; 1 × MIC, 4 h): 5.18 Log10 CFU/mL | Viable counts in Log10 CFU/mL (Candida albicans; 1 × MIC, 6 h): 5.09 Log10 CFU/mL | Viable counts in Log10 CFU/mL (Candida albicans; 1 × MIC, 24 h): >6 Log10 CFU/mL | Viable counts in Log10 CFU/mL (Candida albicans; 1 × MIC, 0 h): 5.56 Log10 CFU/mL | Viable counts in Log10 CFU/mL (Candida albicans; 2 × MIC, 1 h): 3.30 Log10 CFU/mL | Viable counts in Log10 CFU/mL (Candida albicans; 2 × MIC, 2 h): 3.00 Log10 CFU/mL | Viable counts in Log10 CFU/mL (Candida albicans; 2 × MIC, 4 h): 3.00 Log10 CFU/mL | Viable counts in Log10 CFU/mL (Candida albicans; 2 × MIC, 6 h): <2.70 Log10 CFU/mL | Viable counts in Log10 CFU/mL (Candida albicans; 2 × MIC, 24 h): <1 Log10 CFU/mL | Viable counts in Log10 CFU/mL (Candida albicans; 2 × MIC, 0 h): 5.51 Log10 CFU/mL | Viable counts in Log10 CFU/mL (Candida albicans; 4 × MIC, 1 h): 3.78 Log10 CFU/mL | Viable counts in Log10 CFU/mL (Candida albicans; 4 × MIC, 2 h): 3.30 Log10 CFU/mL | Viable counts in Log10 CFU/mL (Candida albicans; 4 × MIC, 4 h): 3.00 Log10 CFU/mL | Viable counts in Log10 CFU/mL (Candida albicans; 4 × MIC, 6 h): <2.70 Log10 CFU/mL | Viable counts in Log10 CFU/mL (Candida albicans; 4 × MIC, 24 h): <1 Log10 CFU/mL | Viable counts in Log10 CFU/mL (Candida albicans; 4 × MIC, 0 h): 5.62 Log10 CFU/mL | Viable counts, Pseudomonas aeruginosa time kill study (Pseudomonas aeruginosa; 1 × MIC, 1 h): <1 Log10 CFU/mL | Viable counts, Pseudomonas aeruginosa time kill study (Pseudomonas aeruginosa; 1 × MIC, 2 h): <1 Log10 CFU/mL | Viable counts, Pseudomonas aeruginosa time kill study (Pseudomonas aeruginosa; 1 × MIC, 4 h): <1 Log10 CFU/mL | Viable counts, Pseudomonas aeruginosa time kill study (Pseudomonas aeruginosa; 1 × MIC, 6 h): <1 Log10 CFU/mL | Viable counts, Pseudomonas aeruginosa time kill study (Pseudomonas aeruginosa; 1 × MIC, 24 h): <1 Log10 CFU/mL | Viable counts, Pseudomonas aeruginosa time kill study (Pseudomonas aeruginosa; 1×MIC, time 0): 5.30 Log10 CFU/mL | Viable counts, Pseudomonas aeruginosa time kill study (Pseudomonas aeruginosa; 2 × MIC, 1 h): <1 Log10 CFU/mL | Viable counts, Pseudomonas aeruginosa time kill study (Pseudomonas aeruginosa; 2 × MIC, 2 h): <1 Log10 CFU/mL | Viable counts, Pseudomonas aeruginosa time kill study (Pseudomonas aeruginosa; 2 × MIC, 4 h): <1 Log10 CFU/mL | Viable counts, Pseudomonas aeruginosa time kill study (Pseudomonas aeruginosa; 2 × MIC, 6 h): <1 Log10 CFU/mL | Viable counts, Pseudomonas aeruginosa time kill study (Pseudomonas aeruginosa; 2 × MIC, 24 h): <1 Log10 CFU/mL | Viable counts, Pseudomonas aeruginosa time kill study (Pseudomonas aeruginosa; 2 × MIC, time 0): 5.28 Log10 CFU/mL | Viable counts, Pseudomonas aeruginosa time kill study (Pseudomonas aeruginosa; 4 × MIC, 1 h): <1 Log10 CFU/mL | Viable counts, Pseudomonas aeruginosa time kill study (Pseudomonas aeruginosa; 4 × MIC, 2 h): <1 Log10 CFU/mL | Viable counts, Pseudomonas aeruginosa time kill study (Pseudomonas aeruginosa; 4 × MIC, 4 h): <1 Log10 CFU/mL | Viable counts, Pseudomonas aeruginosa time kill study (Pseudomonas aeruginosa; 4 × MIC, 6 h): <1 Log10 CFU/mL | Viable counts, Pseudomonas aeruginosa time kill study (Pseudomonas aeruginosa; 4 × MIC, 24 h): <1 Log10 CFU/mL | Viable counts, Pseudomonas aeruginosa time kill study (Pseudomonas aeruginosa; 4 × MIC, time 0): 5.31 Log10 CFU/mL | Viable counts in Log10 CFU/mL (Aspergillus niger; 1 × MIC, 1 h): 4.60 Log10 CFU/mL | Viable counts in Log10 CFU/mL (Aspergillus niger; 1 × MIC, 2 h): 4.78 Log10 CFU/mL | Viable counts in Log10 CFU/mL (Aspergillus niger; 1 × MIC, 4 h): 4.60 Log10 CFU/mL | Viable counts in Log10 CFU/mL (Aspergillus niger; 1 × MIC, 6 h): 4.30 Log10 CFU/mL | Viable counts in Log10 CFU/mL (Aspergillus niger; 1 × MIC, 24 h): 3.81 Log10 CFU/mL | Viable counts in Log10 CFU/mL (Aspergillus niger; 1 × MIC, 0 h): 5.52 Log10 CFU/mL | Viable counts in Log10 CFU/mL (Aspergillus niger; 2 × MIC, 1 h): 4.30 Log10 CFU/mL | Viable counts in Log10 CFU/mL (Aspergillus niger; 2 × MIC, 2 h): 4.78 Log10 CFU/mL | Viable counts in Log10 CFU/mL (Aspergillus niger; 2 × MIC, 4 h): 3.85 Log10 CFU/mL | Viable counts in Log10 CFU/mL (Aspergillus niger; 2 × MIC, 6 h): 3.78 Log10 CFU/mL | Viable counts in Log10 CFU/mL (Aspergillus niger; 2 × MIC, 24 h): 4.30 Log10 CFU/mL | Viable counts in Log10 CFU/mL (Aspergillus niger; 2 × MIC, 0 h): 5.47 Log10 CFU/mL | Viable counts in Log10 CFU/mL (Aspergillus niger; 4 × MIC, 1 h): 4.00 Log10 CFU/mL | Viable counts in Log10 CFU/mL (Aspergillus niger; 4 × MIC, 2 h): 4.48 Log10 CFU/mL | Viable counts in Log10 CFU/mL (Aspergillus niger; 4 × MIC, 4 h): 3.60 Log10 CFU/mL | Viable counts in Log10 CFU/mL (Aspergillus niger; 4 × MIC, 6 h): 3 Log10 CFU/mL | Viable counts in Log10 CFU/mL (Aspergillus niger; 4 × MIC, 24 h): <2 Log10 CFU/mL | Viable counts in Log10 CFU/mL (Aspergillus niger; 4 × MIC, 0 h): 5.60 Log10 CFU/mL | Viable counts, Staphylococcus aureus time kill study (Staphylococcus aureus; 1 × MIC, 1 h): 6.23 Log10 CFU/mL | Viable counts, Staphylococcus aureus time kill study (Staphylococcus aureus; 1 × MIC, 2 h): 6.24 Log10 CFU/mL | Viable counts, Staphylococcus aureus time kill study (Staphylococcus aureus; 1 × MIC, 4 h): 6.16 Log10 CFU/mL | Viable counts, Staphylococcus aureus time kill study (Staphylococcus aureus; 1 × MIC, 6 h): 5.97 Log10 CFU/mL | Viable counts, Staphylococcus aureus time kill study (Staphylococcus aureus; 1 × MIC, 24 h): 6.57 Log10 CFU/mL | Viable counts, Staphylococcus aureus time kill study (Staphylococcus aureus; 1×MIC, time 0): 6.22 Log10 CFU/mL | Viable counts, Staphylococcus aureus time kill study (Staphylococcus aureus; 2 × MIC, 1 h): <3 Log10 CFU/mL | Viable counts, Staphylococcus aureus time kill study (Staphylococcus aureus; 2 × MIC, 2 h): <3 Log10 CFU/mL | Viable counts, Staphylococcus aureus time kill study (Staphylococcus aureus; 2 × MIC, 4 h): <3 Log10 CFU/mL | Viable counts, Staphylococcus aureus time kill study (Staphylococcus aureus; 2 × MIC, 6 h): <3 Log10 CFU/mL | Viable counts, Staphylococcus aureus time kill study (Staphylococcus aureus; 2 × MIC, 24 h): <1 Log10 CFU/mL | Viable counts, Staphylococcus aureus time kill study (Staphylococcus aureus; 2 × MIC, time 0): 6.20 Log10 CFU/mL | Viable counts, Staphylococcus aureus time kill study (Staphylococcus aureus; 4 × MIC, 1 h): <3 Log10 CFU/mL | Viable counts, Staphylococcus aureus time kill study (Staphylococcus aureus; 4 × MIC, 2 h): <3 Log10 CFU/mL | Viable counts, Staphylococcus aureus time kill study (Staphylococcus aureus; 4 × MIC, 4 h): <3 Log10 CFU/mL | Viable counts, Staphylococcus aureus time kill study (Staphylococcus aureus; 4 × MIC, 6 h): <3 Log10 CFU/mL | Viable counts, Staphylococcus aureus time kill study (Staphylococcus aureus; 4 × MIC, 24 h): <1 Log10 CFU/mL | Viable counts, Staphylococcus aureus time kill study (Staphylococcus aureus; 4 × MIC, time 0): 6.21 Log10 CFU/mL
